The values below come from US10894817B2, “Fatty acid modified urocortin-2 analogs for the treatment of diabetes and chronic kidney disease” (priority 2016, dated 2021).

Several values for one entry are separate records, joined by “and”; a condition that tells them apart may be missing. Equal values may be shown once. Starred links: 1 amine or outer side, 2 acyl side, 3 side chain; linkers in the order of their positions; H or OH if unused. Non-standard residues stand in square brackets, D forms with d. Residues, ends and D or L forms follow the SMILES beside them. Groups on a side chain read outwards from the residue. *: point of attachment. C20 diacid = O=C(O)CCCCCCCCCCCCCCCCCCC(=O)*; γGlu = O=C(O)[C@H](CCC(=O)[*:2])N[*:1]; NMeI = CC[C@H](C)[C@H](NC)C(=O)O; AEEA = NCCOCCOCC(=O)O

The clearance is the volume of plasma or blood freed of the substance per unit of time. One may read the AUC(0-inf) as the area under the concentration-time curve extrapolated to infinity. Read a high AUC(0-inf) as high exposure.

Series [1] can be described thus: Pharmacokinetics, single intravenous dose, monkeys. Conditions: for clearance: in vivo, CL.
Description: Plasma concentrations of compounds were determined by LC/MS methods. Each method measured the intact compound; peptide plus linked time extension. […] Two distinct layers were formed upon centrifugation with the compound and the IS located in the supernatant layer. An aliquot of the supernatant (80 μl) was transferred to a Thermo Protein Precipitation Plate with water (150 μl) and formic acid (25 μl) followed by mixing. A final 31% acetonitrile in 10% formic acid sample (10 μl) was loaded onto a Supelco Analytical Discovery BIO Wide Pore C5-3 column (5 cm×1 mm, 3 μm). The column effluent was directed into a Thermo Q-Exactive mass spectrometer for detection and quantitation.
Male Cynomolgus monkeys were administered a single subcutaneous dose or intravenous dose (96.4 nmol/kg) of a compound described herein in 20 mM Tris-HCl Buffer (pH 7) at a volume of 1 mL/kg. Blood was collected from each animal at 2, 6, 24, 48, 72, 96, 168, 240, 336, 408, and 504 hours postdose for pharmacokinetic characterization.
For a further series, the system named is remnant kidney mice. The series is described as follows: Mouse remnant kidney model of hypertensive nephropathy (Example 4, 8 weeks). The class given is in vivo. Conditions: 2.6 nmol/kg dose group. The method, then:
A mouse remnant kidney model (“remnant”) involving surgical reduction of ¾ of the entire renal mass is used as a preclinical model of hypertensive renal disease (Kidney Int. 64(1):350-5, (2003)).
Surgical reduction of renal mass (N=32 mice) (obtained by Taconic, Inc.) is performed by Taconic, Inc. in male 129S6 mice at 9-10 weeks of age. Randomization into 4 equivalent groups of 8 remnant kidney mice is done at 17 weeks post-surgery by urine albumin to creatinine ratio (ACR) and body weight. […]
Body weight is determined at baseline and at termination with a Metler Toledo Balance.
The heart and kidney are removed at necropsy and weighed on a Metler Toledo Balance. […] Serum is analyzed for creatinine on a Roche Hitachi Modular Analytics P analyzer with reagents from Roche. […]
Urine albumin and creatinine are determined on a Roche Hitachi Modular Analytics P analyzer. Urine creatinine is determined with the Creatinine Plus reagent by Roche. […]
Remnant kidneys are removed at study termination, fixed in formalin and processed for paraffin sectioning according to standard methodology. Sections of kidney are evaluated for renal lesions by a board certified pathologist. […]
Pathology data are statistically evaluated with R software by fitting an ordered logit model to the categorical scores, and then comparing the differences between different treatment groups. […]

For series [2], the system named is UniNx db/db AAV renin mice. Nature of the series: Uninephrectomized db/db AAV renin model of diabetic nephropathy. It is filed as in vivo. The protocol:
The uninephrectomized db/db adeno-associated viral (AAV) renin model represents a progressive model of diabetic kidney disease with hypertension driven by an AAV renin transgene (Am J Physiol Regul Integr Comp Physiol. 309(5):R467-74, (2015)).
The uninephrectomy (UniNx) surgery on female db/db mice on a C57BLKS/J background (obtained from Harlan Laboratories) is performed by Harlan Laboratories at 4 weeks of age with removal of the right kidney to accelerate the diabetic kidney disease. Animals are received at 5 weeks of age and housed in micro-isolator cages at 3 mice per cage and are on a 12 hour light/dark cycle. All db/db mice are fed ad libitum with Purina special diet 5008 and allowed free access to autoclaved water.
Mice are acclimated for 7 weeks prior to administration of AAV Renin (5×10^9 GC) intravenously by the retro-orbital sinus to induce persistent hypertension. Randomization by urine albumin to creatinine ratio (ACR), blood glucose and body weight is done at 15 weeks of age (a point at which renal disease and pathology are established in this model based on observations) into 2 groups of 12 saline control mice and 33 mice to receive Lisinopril treatment.
Dosing with Lisinopril (30 mg/L) begins at 16 weeks of age. After 2 weeks of Lisinopril treatment, the 33 mice are randomized by urine ACR, blood glucose and body weight into 4 groups (one group of 9 mice and 3 groups of 8 mice).
In the 4 groups of UniNx db/db AAV renin mice receiving Lisinopril treatment, either 0.9% physiological saline for injection (“saline control” N=9) or different dose levels of Example 4 (7.2, 24 or 72 nmol/kg, N=8 per dose level) are dosed at 0.2 mL s.c. per injection beginning at 18 weeks of age and continued 3 times weekly for 12 weeks. Albumin and creatinine are measured in urine with a Roche Hitachi Modular Analytics P analyzer with Roche reagents for detection of albumin and creatinine.
For all the groups, the parameters measured are body weight, kidney weight, heart weight, urine albumin to creatinine ratio, serum creatinine and renal pathology scores for mesangial matrix expansion, glomerular fibrosis, tubular regeneration, interstitial inflammation and interstitial fibrosis.
At 15 and 27 weeks of age, blood (30 to 50 uL) from all the UniNx db/db AAV Renin mice is obtained from the tail vein and dropped onto a Precision PCx blood glucose sensor electrode strip (Abbott Laboratories) for blood glucose determination with a MediSense Precision PCx glucometer (Abbott Laboratories). Blood glucose data is used to block the UniNx db/db mice into equivalent groups. Body weight is determined at baseline and at termination with a Metler Toledo Balance. The heart and kidney are removed at necropsy and weighed on a Metler Toledo Balance. Blood (500 ul) is collected from the retro-orbital sinus at termination under isoflurane anesthesia. The clotted blood is centrifuged to obtain serum. Serum is analyzed for creatinine on a Roche Hitachi Modular Analytics P analyzer with reagents from Roche.
Urine is collected by a spot collection method to collect urine over a 2-4 hr time period. An individual mouse is placed on top of a 96 well polypropylene microplate and then covered by a Plexiglas chamber with holes for breathing but no access to food or water. At the end of the time period, the urine is removed from the plate with a micropipette and placed on ice, centrifuged and subjected to albumin and creatinine analysis. Urine albumin, creatinine and glucose are determined on a Roche Hitachi Modular Analytics P analyzer. Urine creatinine is determined with the Creatinine Plus reagent by Roche. For urine albumin, the Roche Microalbumin assay is modified to adapt the calibration curve for measuring urine albumin in mice. Albuminuria was defined as albumin to creatinine ratio (ACR).
Kidneys are removed at study termination, fixed in formalin and processed for paraffin sectioning according to standard methodology. […]

[3] abbreviates: male Cynomolgus monkeys, single 96.4 nmol/kg i.v., individual animal.
[4] abbreviates: male, cynomolgus monkey, plasma, iv, 96.4 nmol/kg.

In turn, `CC[C@H](C)[C@H](NC(C)=O)C(=O)N[C@H](C(=O)N[C@@H](CC(C)C)C(=O)N[C@@H](CO)C(=O)N[C@@H](CC(C)C)C(=O)N[C@@H](CC(=O)O)C(=O)N[C@H](C(=O)N1CCC[C@H]1C(=O)N[C@H](C(=O)NCC(=O)N[C@@H](CC(C)C)C(=O)N[C@@H](CC(C)C)C(=O)N[C@@H](CCC(N)=O)C(=O)N[C@H](C(=O)N[C@@H](CC(C)C)C(=O)N[C@@H](CC(C)C)C(=O)N[C@@H](CCC(=O)O)C(=O)N[C@@H](CCC(N)=O)C(=O)N[C@@H](CCC(=O)O)C(=O)N[C@@H](CCCCN)C(=O)N[C@@H](CCC(N)=O)C(=O)N[C@@H](CCC(=O)O)C(=O)N[C@@H](CCCCN)C(=O)N[C@@H](CCC(=O)O)C(=O)N[C@@H](CCCCN)C(=O)N[C@@H](CCC(N)=O)C(=O)N[C@@H](CCC(N)=O)C(=O)N[C@@H](C)C(=O)N[C@@H](CCCCNC(=O)COCCOCCNC(=O)COCCOCCNC(=O)CC[C@H](NC(=O)CC[C@H](NC(=O)CCCCCCCCCCCCCCCCCCC(=O)O)C(=O)O)C(=O)O)C(=O)N[C@H](C(=O)N[C@@H](CC(N)=O)C(=O)N[C@@H](C)C(=O)N[C@@H](CCC(N)=O)C(=O)N[C@H](C(=O)N[C@@H](CC(C)C)C(=O)N[C@@H](C)C(=O)N[C@@H](CCC(N)=O)C(=O)N[C@H](C(N)=O)C(C)C)[C@@H](C)CC)[C@@H](C)O)[C@@H](C)CC)[C@@H](C)CC)C(C)C)C(C)C` [Example 2] (Ac-IVLSLDVPIGLLQILLEQEKQEKEKQQAK([AEEA-AEEA-γGlu-γGlu-C20 diacid])TNAQILAQV-NH2) showed a clearance in series [1] (cynomolgus monkey, iv, 96.4 nmol/kg, male Cynomolgus monkeys, single 96.4 nmol/kg i.v., Mean) of 7.68 mL/day/kg. In series [1] (cynomolgus monkey, iv, 96.4 nmol/kg, male Cynomolgus monkeys, single 96.4 nmol/kg i.v., individual animal), this molecule gave a clearance of 6.72 mL/day/kg. In series [1] (setting [3]), the “C0 (estimated plasma concentration at time zero)” value was 3.267 µM and 3.059 µM; the CL was 8.64 mL/day/kg. In series [1] (setting [4]), this molecule returned an AUC(0-inf) of 306 µM·h and a C0 of 3.16 µM.
For `CC[C@H](C)[C@H](NC)C(=O)N[C@H](C(=O)N[C@@H](CC(C)C)C(=O)N[C@@H](CO)C(=O)N[C@@H](CC(C)C)C(=O)N[C@@H](CC(=O)O)C(=O)N[C@H](C(=O)N1CCC[C@H]1C(=O)N[C@H](C(=O)NCC(=O)N[C@@H](CC(C)C)C(=O)N[C@@H](CC(C)C)C(=O)N[C@@H](CCC(N)=O)C(=O)N[C@H](C(=O)N[C@@H](CC(C)C)C(=O)N[C@@H](CC(C)C)C(=O)N[C@@H](CCC(=O)O)C(=O)N[C@@H](CCC(N)=O)C(=O)N[C@@H](CCC(=O)O)C(=O)N[C@@H](CCCCN)C(=O)N[C@@H](CCC(N)=O)C(=O)N[C@@H](CCC(=O)O)C(=O)N[C@@H](CCCCN)C(=O)N[C@@H](CCC(=O)O)C(=O)N[C@@H](CCCCN)C(=O)N[C@@H](CCC(N)=O)C(=O)N[C@@H](CCC(N)=O)C(=O)N[C@@H](C)C(=O)N[C@@H](CCCCNC(=O)COCCOCCNC(=O)COCCOCCNC(=O)CC[C@H](NC(=O)CC[C@H](NC(=O)CCCCCCCCCCCCCCCCCCC(=O)O)C(=O)O)C(=O)O)C(=O)N[C@H](C(=O)N[C@@H](CC(N)=O)C(=O)N[C@@H](C)C(=O)N[C@@H](CCC(N)=O)C(=O)N[C@H](C(=O)N[C@@H](CC(C)C)C(=O)N[C@@H](C)C(=O)N[C@@H](CCC(N)=O)C(=O)N[C@H](C(N)=O)C(C)C)[C@@H](C)CC)[C@@H](C)O)[C@@H](C)CC)[C@@H](C)CC)C(C)C)C(C)C` [Example 4] (H-[NMeI]VLSLDVPIGLLQILLEQEKQEKEKQQAK([AEEA-AEEA-γGlu-γGlu-C20 diacid])TNAQILAQV-NH2), in the series on remnant kidney mice, the “deaths during the study” value is given as “one”. In addition, the “deaths over the course of the study” value in series [2] (Lisinopril plus 7.2 nmol/kg Example 4 group (N=8)) is reported as 1; in series [2] (Lisinopril plus 24 nmol/kg Example 4 group (N=8)), 3; in series [2] (Lisinopril plus 72 nmol/kg Example 4 group (N=8)), 3.
